{"source": "paper PMC12464775", "about": "“Selective and Potent Peptide Binders of RNF43 for Wnt Signaling Inhibition” (ACS Central Science, 2025)", "key": {"[1]": {"biological_target": "T1, deglycosylated RNF43 (Homo sapiens, UniProt Q68DV7)", "T1 construct": "ECD of the human RNF43 protein was incubated with EZ-link-NHS-PEG4-biotin; biotin (chemical label, NHS-PEG4-biotin)", "T1 sequence (Q68DV7 24-197)": "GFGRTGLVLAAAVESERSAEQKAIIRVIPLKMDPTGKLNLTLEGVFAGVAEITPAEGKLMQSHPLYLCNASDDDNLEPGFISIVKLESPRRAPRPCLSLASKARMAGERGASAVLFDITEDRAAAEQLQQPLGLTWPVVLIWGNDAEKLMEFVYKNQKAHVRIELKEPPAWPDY", "assay": "SPR binding to deglycosylated RNF43", "settings": "biotinylated RNF43 treated with Deglycosylation Mix II, fitted data of representative sensorgram", "experimental": "(§1) SPR measurement was carried out using a Biacore S200 (Cytiva) instrument, with PBS-T (PBS with 0.05% Tween 20, pH 7.4) as the buffer. Biotinylated protein was captured on three sensor channels of Series S SA Sensors (Cytiva). The sensors were then blocked with 0.1 mg/mL biotin. DCPs were injected onto the sensor in a 3× concentration series. The data were double-referenced by subtracting the signal from a sensor channel coated with biotin only and the signal from a buffer injection. For data analysis, binding data were fitted using the manufacturer’s software. ,\nProtein deglycosylation was performed on a small scale using Deglycosylation Mix II (P6044, NEB), according to the manufacturer’s instructions. Briefly, the biotinylated RNF43 was incubated with Deglycosylation Mix II for 1 h at RT. Then the reaction mixture was transferred to 37 °C and further incubated overnight. Following incubation, the reaction mixture was analyzed by mobility shift on SDS-PAGE gels. After dialysis, the protein was then used for further applications."}, "[2]": {"biological_target": "T2, human RNF43 (Homo sapiens, UniProt Q68DV7)", "T2 construct": "ECD of the human RNF43 protein was incubated with EZ-link-NHS-PEG4-biotin; biotin (chemical label, NHS-PEG4-biotin on amines, 1-2 per protein)", "T2 sequence (Q68DV7 24-197 limits assumed)": "T1 sequence (Q68DV7 24-197)", "assay": "SPR binding of DCPs to immobilized human RNF43 ECD", "settings": "SPR, Biacore S200, biotinylated human RNF43 captured on SA sensor, DCP injected, PBS-T pH 7.4; independently performed at least three times; NB = no binding", "experimental": "ECD of the human RNF43 protein was incubated with EZ-link-NHS-PEG4-biotin (Thermo Fisher, 1:1, 50 μM) for 1 h at room temperature (RT). The reaction was quenched by addition of 10 mM Glycine, followed by dialysis into phosphate buffered saline (PBS) overnight at 4 °C. Finally, the biotinylated protein was analyzed using LC-MS to ensure that each protein is labeled with 1–2 biotin molecules. ,\nas §1"}, "[3]": {"biological_target": "T3, mouse RNF43 (Mus musculus, UniProt Q5NCP0)", "T3 sequence (Q5NCP0 24-197 limits assumed)": "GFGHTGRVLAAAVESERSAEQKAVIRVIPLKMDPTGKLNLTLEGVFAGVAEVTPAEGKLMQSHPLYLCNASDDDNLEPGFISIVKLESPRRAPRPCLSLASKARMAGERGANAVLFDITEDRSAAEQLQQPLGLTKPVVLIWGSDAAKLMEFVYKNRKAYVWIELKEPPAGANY", "assay": "SPR binding of DCPs to mouse RNF43", "settings": "independently performed at least three times", "experimental": "as §1"}}, "note": "Bridge positions count the residues as written; N and C are the ends. Peptide text beside a SMILES is read from it.", "data": [{"smiles": "CC[C@H](C)[C@H](NC(=O)[C@@H]1CSSC[C@H](NC(=O)[C@@H](NC(=O)[C@H](Cc2c[nH]cn2)NC(=O)[C@H](CO)NC(=O)[C@H](Cc2ccc(O)cc2)NC(=O)[C@H](CC(=O)O)NC(=O)[C@H](Cc2c[nH]cn2)NC(=O)[C@@H]2CSSC[C@H](NC(=O)[C@H](CCC(N)=O)NC(=O)[C@@H](N)CCC(=O)O)C(=O)N[C@@H]([C@@H](C)O)C(=O)N[C@@H](CO)C(=O)N[C@@H]([C@@H](C)O)C(=O)N[C@@H](CCC(N)=O)C(=O)N[C@@H](CC(=O)O)C(=O)N[C@@H](CC(C)C)C(=O)N2)C(C)C)C(=O)N[C@H]2CSSC[C@H](NC(=O)[C@H](CC(=O)O)NC(=O)[C@H](CC(C)C)NC(=O)[C@@H]3CCCN3C(=O)[C@H](Cc3c[nH]c4ccccc34)NC2=O)C(=O)N[C@@H](CCCNC(=N)N)C(=O)N[C@@H](Cc2c[nH]c3ccccc23)C(=O)N[C@@H](C)C(=O)N[C@@H](C(C)C)C(=O)N[C@@H](CCCCN)C(=O)N[C@@H](Cc2ccc(O)cc2)C(=O)N[C@@H](CCC(N)=O)C(=O)N[C@@H](Cc2c[nH]c3ccccc23)C(=O)N[C@@H](Cc2ccccc2)C(=O)N[C@@H](Cc2c[nH]c3ccccc23)C(=O)N[C@@H](CC(=O)O)C(=O)N1)C(=O)NCC(=O)O", "note": "[GUR-1.6.12.2] (H-EQCTSTQDLCHDYSHVCCWPLDCRWAVKYQWFWDCIG-OH; disulfide 3-10, 17-35, 18-23)", "values": [{"measurement": "KD against deglycosylated RNF43", "setting": "[1]", "result": "remained unchanged"}, {"measurement": "KD (h, nM)", "setting": "[2]", "result": "single-digit nanomolar"}, {"measurement": "Kd", "setting": "[3]", "result": "2.1 ± 0.2", "unit": "nM"}]}]}
